In patent publication US20100263095A1, “METHOD FOR GROWING SUGARCANE” (SYNGENTA CROP PROTECTION, INC., priority 2007, published 2010):

Tests used:
[1] = tested on: sugar cane Variety RB 86-7515; experiment: Greenhouse pot test: effect of formulated fipronil on vigour; format: in vivo; conditions: result in words
Experimental: Greenhouse test with sugarcane buds growing in pots were conducted to study the effect of fipronil equivalent to an application rate of 200 g. ha^−1 on “vigour”, evaluating tillers, plant height, leaf width and culm diameter on sugar cane Variety RB 86-7515.
Twenty 1 L pots were filled with 16 L of clay soil, 1.6 L of sand and 8 g of nitrogen, 28 g of phosphorus (P2O5) and 16 g of potassium (K2O). Six carretels of 4 cm length with one bud were planted in each pot (treatments 1, 2, 4 and 5). Two stalks with three buds were planted in each control pot (treatments 3 and 6) to simulate conventional planting. A layer of 3 cm of soil was used to cover the carretels. The carretels of treatments 1 and 2 were treated with 200 g ai·ha^−1 of fipronil, by dipping the carretels in the slurry for 3 min, based on the uptake capacity of carretels. The stalks were treated simulating a furrow application at 100 L·ha^−1 of slurry. Experimental design adopted was randomized complete block with four replications. The pots were maintained with adequate moisture during the test. Evaluations of: plant height, leaf width, culm diameter and number of tillers were done at 20, 30 and 42 days after planting.

[2] = tested on: sugarcane Variety RB 86-7515; experiment: Greenhouse pot test: effect of formulated thiamethoxam on vigour; format: in vivo, sugar cane; conditions: result in words
Experimental: This trial was conducted on Variety RB 86-7515.

[3] = tested on: sugar cane Variety RB 86-7515; experiment: Greenhouse pot test: effect of formulated abamectin on vigour; format: in vivo; conditions: Carretel with one bud; 100 g ai/ha; 42 days after planting
Experimental: Greenhouse test with sugarcane buds growing in pots were conducted to study the effect of formulated abamectin regarding “vigour”, tillers, plant height, leaf width and culm diameter on sugar cane Variety RB 86-7515.
Twenty 1 L pots were filled with 16 L of clay soil, 1.6 L of sand and 8 g of nitrogen, 28 g of phosphorus (P2O5) and 16 g of potassium (K2O). Six carretels of 4 cm length with only one bud were planted in each pot (treatments 1, 2, 4 and 5). Two stalks with three buds were planted in each control pot (treatments 3 and 6) to simulate conventional planting. A layer of 3 cm of soil was used to cover the carretels. The carretels of treatments 1, 2 were treated with 200 ml/ha of abamectin, by dipping the carretels in the slurry for 3 min, based on the uptake capacity of carretels. The stalks were treated simulating a furrow application at 100 L·ha^−1 of slurry. Experimental design adopted was randomized complete block with four replications. The pots were maintained with adequate moisture during the test. Evaluations of: plant height, leaf width, culm diameter and number of tillers were done at 20, 30 and 42 days after planting.

**Q.** How did the “height of the resultant plants in comparison with the control” value [1] turn out when `N#Cc1nn(-c2c(Cl)cc(C(F)(F)F)cc2Cl)c(N)c1[S+]([O-])C(F)(F)F` (centres unmarked) [Fipronil, fipronil] was run?
**A.** The value was “decreased the height”.

**Q.** How did the “number of tillers in comparison with the corresponding controls” value ([2]; carretels) turn out when `CN1COCN(Cc2cnc(Cl)s2)/C1=N\[N+](=O)[O-]` [Thiamethoxam, thiamethoxam] was run?
**A.** The value was “increased number of tillers”.

**Q.** And the “plant height in comparison with the corresponding controls” value ([2]; carretels)?
**A.** Its value is “reduced plant height”.

**Q.** And the ““quality” compared with the other treatments” value ([2]; overall assessment, not apparent from the listed parameters)?
**A.** Its value is “increase in “quality” greater than the other treatments”.

**Q.** For abamectin, which Tillers [3] is on record?
**A.** Its Tillers is 14 number.
